{"source": "patent US8383609B2", "about": "“Phosphorus containing heterocyclic compounds, sugar analogues, and compositions having anti-cancer activity containing the same” (Centre National de la Recherche Scientifique, priority 2007, dated 2013)", "key": {"[1]": {"test_system": "C6 Cells from glioblastomas of rats", "assay": "Cytotoxicity on the C6 cell line (quantitative neutral red assay)", "protocol": "c) C6 Cells from glioblastomas of rats. […] These cells were cultured in MEM (Minimum Essential Medium), in the presence of 5% of foetal calf serum. Incubation was conducted at 37° C. in a 5% CO2 humidity atmosphere.\nThe cells were seeded in 96-well plates with 2000 cells per well in 200 μL of MEM/HANKS (70/30) in the presence of 5% of foetal calf serum. The compounds were added 24 hours after seeding. […] The concentration range used did vary from 50 μM to 24 nM by conducting ½ to ½ serial dilutions.\n(§1) The activity evaluation of the test compounds was effected by measuring the cell viability in the culture wells, by means of a so called “neutral red assay” that did consist in contacting the cells with this dye, the accumulation of which in cell acidic compartments does express the health status of the latter. The neutral red test makes it thus possible to know the cytotoxic effect of a compound. The dye was used from a 0.33% stock solution in PBS. 20 μL of such solution were added to each culture well containing 300 μL of culture medium and the plates were incubated at 37° C. for three hours.\n(§2) The supernatant of each well was then removed by succion. […] The wells were evacuated again, and the cells were lyzed, thus salting out the dye in the well, this procedure being effected with a solution made of ethanol, water and acetic acid (50/49/1). The colour intensity obtained directly indicated the cell viability. It was quantified by measuring the absorbance at 570 nm. This measure was effected on a 96-well plate reader, of BIO-RAD Microplate reader 550 type, providing an optical density value (OD) for each well of culture.\n(§3) Thereafter IC50 values were therefore determined by establishing the OD well X/OD control ratio, thus directly providing the percentage of living cells in the medium.\nThe quantitative evaluation of the cytotoxicity of the compounds of the invention against modified cells that are said to be “cancerous” was conducted on the C6 cell line. Plates were seeded at a cell density of 2000 cells per well. This density enabled to obtain a 80% confluence after a 4 day-culture for non treated cells."}, "[2]": {"test_system": "astrocyte primary cultures from the cortex of a newborn rat", "assay": "Cytotoxicity on the non modified astrocytes, so called healthy cells (quantitative assay)", "details": "second day after addition, 50 μM to 24 nM", "protocol": "(§4) b) Astrocyte primary cultures from the cortex of a newborn rat for testing the so called “healthy cells”. This primary culture was conducted based on the brain tissue removed from the cortex of a newborn rat. After homogeneization, trypsinization and centrifugation, cells were distributed in 24-well plates for about 3 weeks. Oligodendrocytes were then removed by stirring the culture plates for 30 minutes and by changing the supernatant with fresh medium.\nas §1, §2, §3\n(§5) Cytotoxicity evaluation assays against the so called “healthy cells” were conducted on astrocyte primary cultures collected from the cortex of newborn rats, mimetizing the physiology of a so called “healthy cell”, i.e. a non cancerous cell.\n(§6) These cells being unmodified, their division time was very long (about 50 hours). It was thus necessary to choose a higher initial seeding concentration (5000 cells per well). The compounds (1) were introduced only after 96 hours so as to allow the cells to adhere to the well walls and to divide once or twice. The concentration range for the test compounds (1) varied from 50 μM to 24 nm as for the C6 cells. Controls were carried out the second day following the introduction of the compounds (1). Two plates were made available for each measurement."}, "[3]": {"test_system": "spontaneously converted astrocytes collected from the cortex of a newborn rat", "assay": "Cytotoxicity on the spontaneously converted astrocytes (qualitative assay, microscopic observation)", "format": "cell-based", "details": "microscopic observation each day for four days, 50 μM to 400 nM", "text": "a) Spontaneously converted astrocytes collected from the cortex of a newborn rat (see Bochelen D., Langley K., Adamczyk M., Kupfberg, Hor F., Vincendon G., Mersel M., J. Neurosci. Res., 2000, 62, 99-111), that is to say from normal glial cells maintained in culture and that became able to divide to infinity. These cells are not able to induce tumors after implantation in the rat but did avoid the cell cycle regulation. This cell line was maintained in culture in culture flasks in the presence of 5 mL of culture medium MH5 comprising 70% of MEM and 30% of a Hanks solution. This medium was supplemented with 5% of foetal calf serum. The culture medium was changed every three days. Cells were incubated at 37° C. in an air/CO2 atmosphere (95/5). For the experiments, a replanting was effected after removal of the culture medium, cells were treated for 4 to 5 minutes with trypsine (0.1%). The cell suspension was then placed in 5 mL of fresh medium, 50 μL of this solution were collected to perform the cell counting. […]\nThese assays conducted on compounds 3.28, 3.8, 3.5. […] The effect was evaluated by simple microscopic observation of the culture plates. […] The evaluated compounds did present an activity at a very low concentration. An activity could be observed after 72 h to 96 h (days 3 and 4) for the whole evaluated compounds."}, "[4]": {"test_system": "astrocyte primary cultures from the cortex of a newborn rat", "protocol": "as §4, §1, §2, §3, §5, §6"}, "[5]": {"details": "C6 cell line, high concentration"}}, "note": "Where two headings read alike, the source gives them in different places."}
{"molecule": "6-(1,2-dihydroxy-ethyl)-2,2-dimethyl-2-oxo-2-diethoxymethyl-tetrahydro-6λ*5*-[1,3]dioxolo[4,5-d][1,2]oxaphosphinan-3-tosyl [Compound 3.6]", "values": [{"measurement": "IC50", "setting": "[1]; C6 cell line, neutral red cell viability, measures conducted on day 2 or 3", "value": 1500, "unit": "nM"}]}
{"molecule": "O=[N+]([O-])c1ccc([P@]2(=O)O[C@H](COCc3ccccc3)[C@@H](OCc3ccccc3)[C@H](OCc3ccccc3)C2O)cc1", "note": "(single isomer, unassigned) [Compound 3.52, 4,5-bis-benzyloxy-6-benzyloxymethyl-2-(p-nitro)phenyl-2-oxo-2λ^5-[1,2]oxaphosphinan-3-ol]", "values": [{"measurement": "cytotoxicity on healthy cells (cell viability)", "setting": "[2]", "value": "absence of cytotoxicity"}, {"measurement": "IC50", "setting": "[1]; Rattus norvegicus, C6, 48 h", "value": "100 to 5000", "unit": "nM"}]}
{"molecule": "CC1(C)O[C@H]2[C@@H]([C@H]3COC(C)(C)O3)O[P@@](=O)(c3ccccc3)[C@@H](Oc3ccc([N+](=O)[O-])cc3)[C@H]2O1", "note": "[Compound 3.9a, 4-(2,2-Dimethyl-[1,3]dioxolan-4-yl)-2,2-dimethyl-2-oxo-2-phenyl-tetrahydro-6λ*5*-[1,3]dioxolo[4,5-d][1,2]oxaphosphinan-3-oxy-p-nitrophenyl]", "values": [{"measurement": "IC50", "setting": "[1]; Rattus norvegicus, C6, 48 h", "value": "400 to 1000", "unit": "nM"}]}
{"molecule": "CCOC(OCC)P1(=O)O[C@H]([C@H]2COC(C)(C)O2)[C@@H]2OC(C)(C)O[C@@H]2C1O", "note": "(some centres unmarked) [Compound 3.19a, 4-(2,2-Dimethyl-[1,3]dioxolan-4-yl)-2,2-dimethyl-2-oxo-2-diethoxymethyl-tetrahydro-6λ*5*-[1,3]dioxolo[4,5-d][1,2]oxaphosphinan-3-ol]", "values": [{"measurement": "cytotoxic activity on spontaneously converted astrocytes", "setting": "[3]", "value": "cytotoxic activity"}]}
{"molecule": "CC1(C)O[C@H]2[C@@H]([C@H]3COC(C)(C)O3)O[P@@](=O)(c3ccccc3)[C@@H](NCc3ccccc3)[C@H]2O1", "note": "[Compound 3.28, 4-(2,2-Dimethyl-[1,3]dioxolan-4-yl)-2,2-dimethyl-2-oxo-2-phenyl-tetrahydro-6λ*5*-[1,3]dioxolo[4,5-d][1,2]oxaphosphinan-3-aminobenzyl]", "values": [{"measurement": "cytotoxicity on healthy cells (cell viability)", "setting": "[2]", "value": "absence of cytotoxicity"}, {"measurement": "cytotoxic activity on spontaneously converted astrocytes", "setting": "[3]", "value": "cytotoxic activity"}, {"measurement": "IC50", "setting": "[1]; Rattus norvegicus, C6, 48 h", "value": "800 to 5000", "unit": "nM"}]}
{"molecule": "Cc1ccc(N[C@H]2[C@H]3OC(C)(C)O[C@H]3[C@@H]([C@H]3COC(C)(C)O3)O[P@@]2(=O)c2ccccc2)cc1", "note": "[Compound 3.30a, 4-(2,2-Dimethyl-[1,3]dioxolan-4-yl)-2,2-dimethyl-2-oxo-2-phenyl-tetrahydro-6λ*5*-[1,3]dioxolo[4,5-d][1,2]oxaphosphinan-3-aminotoluyl]", "values": [{"measurement": "cytotoxicity on healthy cells (cell viability)", "setting": "[2]", "value": "did not show any significative effect"}, {"measurement": "mortality of C6 cells when highly concentrated", "setting": "[1]; [5]", "value": "total mortality"}, {"measurement": "IC50", "setting": "[1]; Rattus norvegicus, C6, 48 h", "value": "500 to 5000", "unit": "nM"}]}
{"molecule": "Cc1ccc(N[C@H]2[C@H]3OC(C)(C)O[C@H]3[C@@H]([C@H]3COC(C)(C)O3)O[P@@]2(=O)c2ccccc2)cc1", "note": "[Compound 3.30b, 4-(2,2-Dimethyl-[1,3]dioxolan-4-yl)-2,2-dimethyl-2-oxo-2-phenyl-tetrahydro-6λ*5*-[1,3]dioxolo[4,5-d][1,2]oxaphosphinan-3-aminotoluyl]", "values": [{"measurement": "cytotoxicity on healthy cells (cell viability)", "setting": "[2]", "value": "absence of cytotoxicity"}]}
{"molecule": "O=[P@@]1(c2ccccc2)O[C@H](COCc2ccccc2)[C@@H](OCc2ccccc2)[C@H](OCc2ccccc2)C1O", "note": "(some centres unmarked) [Compound 3.48a, 4,5-bis-benzyloxy-6-benzyloxymethyl-2-phenyl-2-oxo-2λ^5-[1,2]oxaphosphinan-3-ol]", "values": [{"measurement": "IC50", "setting": "[1]; Rattus norvegicus, C6, 48 h", "value": "1000 to 2000", "unit": "nM"}]}
{"molecule": "COc1ccc([P@]2(=O)O[C@H](COCc3ccccc3)[C@@H](OCc3ccccc3)[C@H](OCc3ccccc3)C2O)cc1", "note": "(some centres unmarked) [Compound 3.51a, 4,5-bis-benzyloxy-6-benzyloxymethyl-2-(p-methoxy)phenyl-2-oxo-2λ^5-[1,2]oxaphosphinan-3-ol]", "values": [{"measurement": "cytotoxicity on healthy cells (cell viability)", "setting": "[2]", "value": "did not show any significative effect"}, {"measurement": "mortality of C6 cells when highly concentrated", "setting": "[1]; [5]", "value": "total mortality"}, {"measurement": "IC50", "setting": "[1]; Rattus norvegicus, C6, 48 h", "value": "100 to 5000", "unit": "nM"}]}
{"molecule": "CC1(C)O[C@H]2[C@@H]([C@H]3COC(C)(C)O3)O[P@@](=O)(c3ccccc3)[C@@H](OC(=N)C(Cl)(Cl)Cl)[C@H]2O1", "note": "[Compound 3.57, 4-(2,2-Dimethyl-[1,3]dioxolan-4-yl)-2,2-dimethyl-2-oxo-2-phenyl-tetrahydro-6λ*5*-[1,3]dioxolo[4,5-d][1,2]oxaphosphinan-3-imidate]", "values": [{"measurement": "cytotoxicity on healthy cells (cell viability)", "setting": "[4]", "value": "did not show any significative effect"}, {"measurement": "cell death of healthy cells", "setting": "[4]; rat", "value": "≤ 20", "unit": "%"}, {"measurement": "mortality of C6 cells when highly concentrated", "setting": "[1]", "value": "total mortality"}, {"measurement": "IC50", "setting": "[1]; Rattus norvegicus, C6, 48 h", "value": "100 to 5000", "unit": "nM"}]}
